According to patent US9586901B2, “Lactams” (UNILEVER PLC, priority 2006, dated 2017):

Columns and labels:
[1] = system: Staphylococcus epidermidis; test: S. epidermidis growth inhibition (OD600 growth curves); format: cell-based; conditions: concentration of compound that significantly alters growth rate or final growth yield
Protocol: The growth inhibition of Staphylococcus epidermidis by the compounds of the present invention was determined by growing S. epidermidis in 96 well microtitre plates in Trypticase Soy Broth plus 0.5% glucose in a Wallac Victor2 microplate reader. Each compound was added to the wells at different concentrations and a no-compound control and a set of blank wells were also used. The OD600 was measured hourly.

[2] = system: Murine L929 cells; test: Cytotoxicity study, L929 cell number after 48 hour culture; format: cell-based; conditions: for Mean (cell number): L929, 48 hour; for % Inhibition: cell number vs non-challenged cultures
Protocol: Murine L929 cells are established at low density and, during the testing period, grow to confluency in plastic petri dishes. 24 hours after the dishes are inoculated, the medium on the test dishes is aspirated and replaced with a medium containing the compound to be tested. The cell monolayer is then cultured for a further 48 hour period. At the end of the test period, cells are harvested from the dishes and their numbers assessed and compared with unperturbed cultures. Differences in cell numbers are expressed as a percentage inhibition in comparison to non-challenged cultures.

[3] = system: LasR; test: LasR assay (unstable gfp fused to the elastase promoter); format: cell-based; conditions: Pseudomonas aeruginosa, read-out: LasR (conc)
Protocol: Compounds of the present invention were also assayed using a LasR assay. The LasR assay provides a measurement of quorum sensing inhibition activity. The higher the percentage inhibition. […] In the LasR assay, an unstable gfp has been fused to the elastase promoter, so that the amount of Gfp is regulated by the QS system. The plasmid is put into Pseudomonas aeruginosa which makes its own AHL signals. The assay is performed by adding the compounds to be tested to the system at the beginning of the experiment, at different concentrations. Gfp expression is measured at different times during growth, ending at the 24 h time point. The percentage fluorescence was determined at the time point when the fluorescence reached its maximum in the control, usually around 11-12 h after inoculation.

[4] = system: V. fischeri luxRI system; test: N-acylated homoserine lactone (AHL) quorum sensing assay, GFP reporter strain; format: cell-based, E. coli; conditions: for ID40 at 3 nM OHHL: Table 4, number in parentheses, amount of compound lowering relative activity to 40%
Protocol: Compounds of the present invention were compared to compounds of the prior art in order using an AHL-quorum sensing assay which utilises a reporter strain that expresses Green Fluorescent Protein (GFP) in the presence of AHL signals. The assay is performed by measuring GFP output in the presence of the compound to be measured and comparing the output to a control. By using multiple samples at varying concentrations of compound and AHL, an inhibition index of compound activity can be generated. The inhibition index used in the present example is the relative amount of compound required to reduce GFP expression to 40% of the control. The inhibition index is termed AIC40. Lower values of AIC40 represent better inhibitors of the AHL quorum sensing system.
The reporter strain of bacterium used in this assay is E. coli into which the V. fischeri luxRI system has been engineered. A gfp gene is fused to the QS controlled luxI promoter as is described in (Andersen et al., 2001, and Andersen et al, 1998).
Measurement of AIC40 (ID40 at 3 nM OHHL)
Determination of the activity of compounds using the E. coli based luxRI construct was performed as follows.
In a 15 mL plastic tube, mix 3 mL of o.n. culture of the lux reporter strain with 12 mL fresh medium, incubate at 37° C. Label six tubes, 10, 20, two 50 and two 100. To each of the tubes, add OHHL (3-oxohexanoyl homoserine lactone) to a final concentration of 10, 20, 50, or 100 nM respectively in the AB medium (add enough medium to distribute across the appropriate number of wells). To the first row of the microplate (row A), add 200 ul of the OHHL/AB mixture. To the remaining rows (B-H) add 100 ul of the OHHL/AB mixture. To the first row (A) add compounds to be tested to the 200 ul mixture of OHHL/AB. Make a dilution series in the first 7 rows by transferring 100 μL from wells in row 1 to wells in row 2 and so on. Discard the remaining 100 μL from row 7. Add 100 μL diluted lux monitor to each well. Incubate the plate 2 hours at 37° C. and measure green fluorescence using the “Victor” plate reader.
Calculate ID40 for each column. To do this, calculate the relative activity in each well. […] Make a plot for each concentration of OHHL vs. the range of compound concentrations used. Calculate the amount of compound needed to lower the relative activity to 40%, this is termed inhibiting dose 40%, ID40. For each compound an inhibition index, AIC40, is found as follows: plot ID40 against its respective AHL concentration; AIC40 is the slope of the best straight line through the plotted points and origin.
The methodology for this assay is set out in 2(a) above.

[5] = system: S. epidermidis biofilm; test: Inhibition of biofilm formation in petri dishes, S. epidermidis; format: cell-based; conditions: percent reduction of control
Protocol: (§1) Biofilm formation in petri dishes was measured using the following protocol as a compromise between flow cells and microtitire plate based assays. The method increases the number of replicates (relative to flow cells) that can be tested while still generating a biofilm that has typical structures, such as microcolonies, which are important as differentiated structures within the biofilm. The method consists of placing a surface, such as a glass slide (for unattached compounds) or a modified plastic coupon (for covalently attached compounds) on the bottom of a sterile petri dish and adding growth medium. The bacteria are inoculated into the dish and allowed to incubate at the appropriate temperature at 50 rpm. The medium is replaced at 24 h and allowed to incubate a further 24 h, after which time, the slides are removed and rinsed to remove loosely attached cells. For monitoring biofilm formation on glass slides, the cells are either stained with a suitable fluorescent stain and are visualised using the confocal microscope and the biofilm (as % surface coverage) is quantified, or the biofilm is stained with crystal violet, washed thoroughly to remove excess stain, and subsequently destained and the absorbance at […] is measured to determine the amount of biofilm, as a function of crystal violet staining.

[6] = system: P. aeruginosa biofilm; test: Inhibition of biofilm formation in petri dishes, P. aeruginosa; format: cell-based; conditions: percent reduction of control
Protocol: as §1

[7] = system: E. coli biofilm; test: Inhibition of biofilm formation in petri dishes, E. coli; format: cell-based; conditions: 5 ug/ml; percent reduction of control
Protocol: as §1

[8] = system: Pseudomonas aeruginosa PAO1 (wt); test: Pulmonary model of infection: mice challenged with bacteria/seaweed alginate through the trachea; format: in vivo
Protocol: The first group was treated with 5-methylene-4-phenyl-dihydro-pyrrol-2-one (C219) as 12 μg/g body weight, given as injections twice a day for three days and the second group were treated with vehicle. (p=0.0008).
This model is reminiscent of the situation in CF patients or patients with a dysfunctional muccociliary escalator.
The treatment dosage of 5-methylene-4-phenyl-dihydro-pyrrol-2-one (C219) was 12 μg/g body weight, given as injections twice a day.
Mice were challenged with Pseudomonas aeruginosa PAO1 (wt) 5.2×10^6 CFU/lung (1.3×10^8 CFU/ml). Each group holds 10 mice, the treatments with C219 and Vehicle lasted for three days. The mortality was 10% in C219 and 30% in Vehicle groups. At day 5, the surviving mice were sacrificed.

[9] = 40 μg/ml, 30% = cytotoxic potential
[10] = Table 4 comparative results, first number of the cell, lower = better
[11] = inhibition index: slope of ID40 against AHL concentration, lower = better inhibitor, NE = no effect

## CC1(O)NC(=O)C=C1c1cccc(F)c1 (stereo not shown)
[1]
  minimal effective concentration: > 100 µg/mL

## CC(C)CN1C(=O)C=C(c2ccccc2)C1=C(Br)Br [Compound 226]
[2]; 5 μg/ml
  Mean (cell number): 3.41E+05
  % Inhibition: 21.8%
[2]; 10 μg/ml
  Mean (cell number): 2.14E+05
  % Inhibition: 50.9%
[2]; 20 μg/ml
  Mean (cell number): 2.42E+05
  % Inhibition: 44.4%
[2]; 40 μg/ml, E+05 = ×10^5
  Mean (cell number): 1.67E+05
[2]; [9]
  % Inhibition: 61.6%

## CC1(O)NC(=O)C=C1c1ccc(F)cc1 (stereo not shown)
[3]
  inhibition at 100 µg/mL: 28%
[1]
  minimal effective concentration: 100 µg/mL

## CCCC(O)C1=C(Br)/C(=C/Br)N(c2ccccc2)C1=O (stereo not shown) [reference compound]
[4]; [10]
  AIC40: 99

## C=C1NC(=O)C=C1c1ccc(F)cc1 [drawing 21]
[5]; 10 ug/ml
  S. epidermidis biofilm: 40% (10 ug/ml)
[3]
  inhibition at 50 µg/mL: 61%
[6]; 12.5 ug/ml
  P. aeruginosa biofilm: 78% (12.5 ug/ml)
[4]; unit not given
  ID40 at 3 nM OHHL: 17.61
[4]; [10]
  AIC40: 4.61
[4]; [11]
  AIC40: 4.61
[1]
  minimal effective concentration: 20 µg/mL

## O=C1C=C(Br)/C(=C/Br)N1Cc1ccccc1 [reference compound]
[4]; [10]
  AIC40: 27

## C=C1NC(=O)C=C1c1cccc(C(F)(F)F)c1
[3]
  inhibition at 25 µg/mL: 40%
[4]; [11]
  AIC40: 4.6
[1]
  minimal effective concentration: 0.5 µg/mL

## C=C1NC(=O)C=C1c1ccccc1 [drawing 20]
[7]
  E. coli biofilm: 95% (5 ug/ml)
[3]
  inhibition at 50 µg/mL: 80%
[6]; 10 ug/ml
  P. aeruginosa biofilm: 88% (10 ug/ml)
[4]; unit not given
  ID40 at 3 nM OHHL: 16.2
[4]; [10]
  AIC40: 1.1
[4]; [11]
  AIC40: 1.1
[1]
  minimal effective concentration: 5 µg/mL

## C=C1NC(=O)C=C1c1ccccc1 [Compound 219, 5-methylene-4-phenyl-dihydro-pyrrol-2-one]
[8]; 12 μg/g body weight, injections twice a day for three days, 10 mice per group, Vehicle 30%
  mortality: 10%
[8]; LIMP = fraction of total lung area showing inflammation, 12 μg/g twice a day for three days, vs vehicle
  severity (LIMP) of P aeruginosa lung infection: significantly reduced the severity (LIMP)
[8]; day 5, 12 μg/g twice a day for three days, vs Vehicle, p=0.0008 (FIG. 1)
  lung bacterial load: significantly reduced the lung bacterial load
[4]; [10]
  AIC40: significantly better AIC40 values than compounds 198 and 205
[2]; 10 μg/ml
  Mean (cell number): 5.41E+05
  % Inhibition: −10.3%
[2]; 20 μg/ml
  Mean (cell number): 4.95E+05
  % Inhibition: −1.0%
[2]; 40 μg/ml, E+05 = ×10^5
  Mean (cell number): 4.74E+05
[2]; [9]
  % Inhibition: 3.4%
[2]; compared with compounds 226 and 223
  cytotoxicity (in words): surprisingly little or no cytotoxicity

## CC1(O)NC(=O)C=C1Cc1ccccc1 (stereo not shown)
[1]
  minimal effective concentration: > 100 µg/mL

## CC1(O)NC(=O)C=C1c1ccccc1F (stereo not shown)
[5]; 50 ug/ml
  S. epidermidis biofilm: 17% (50 ug/ml)
[3]
  inhibition at 100 µg/mL: 40%
[6]; 20 ug/ml
  P. aeruginosa biofilm: 12% (20 ug/ml)
[4]; [11]
  AIC40: 9.9
[1]
  minimal effective concentration: > 100 µg/mL

## C=C1NC(=O)C=C1c1ccccc1F
[5]; 0.3 ug/ml
  S. epidermidis biofilm: 60% (0.3 ug/ml)
[3]
  inhibition at 25 µg/mL: 60%
[4]; [11]
  AIC40: 1.7
[1]
  minimal effective concentration: 20 µg/mL

## C=C1C(c2ccccc2)=CC(=O)N1C
[3]
  inhibition at 50 µg/mL: 40%
[4]; unit not given
  ID40 at 3 nM OHHL: 163.26
[4]; [10]
  AIC40: 52.76
[4]; [11]
  AIC40: 52.76

## C=C1NC(=O)C=C1c1ccc(F)cc1 [Compound 257]
[4]; [10]
  AIC40: significantly better AIC40 values than compounds 198 and 205

## CCO [Ethanol]
[2]; 4% Ethanol
  Mean (cell number): 3.40E+05
  % Inhibition: 30.7%
[2]; 5% Ethanol
  Mean (cell number): 3.09E+05
  % Inhibition: 36.9%
[2]; 7.5% Ethanol
  Mean (cell number): 7.63E+04
  % Inhibition: 84.5%

## C=C1NC(=O)C=C1c1ccc(C(F)(F)F)cc1
[3]
  inhibition at 25 µg/mL: 54%
[4]; [11]
  AIC40: 1
[1]
  minimal effective concentration: 1 µg/mL

## C=C1NC(=O)C=C1c1ccc(Br)cc1 [Compound 295]
[4]; [10]
  AIC40: significantly better AIC40 values than compounds 198 and 205

## CC(C)CN1C(=O)C(c2ccccc2)=CC1=C(Br)Br [Compound 223]
[2]; 10 μg/ml
  Mean (cell number): 3.31E+05
  % Inhibition: 24.1%
[2]; 20 μg/ml
  Mean (cell number): 2.94E+05
  % Inhibition: 32.5%
[2]; 40 μg/ml, E+05 = ×10^5
  Mean (cell number): 2.07E+05
[2]; [9]
  % Inhibition: 52.4%

## COc1cccc(C2=CC(=O)NC2(C)O)c1 (stereo not shown)
[1]
  minimal effective concentration: > 50 µg/mL

## C=C1NC(=O)C=C1Cc1ccccc1
[3]
  inhibition at 50 µg/mL: 61%
[4]; unit not given
  ID40 at 3 nM OHHL: 239.79
[4]; [10]
  AIC40: 69.45
[4]; [11]
  AIC40: 69.45

## C=C1NC(=O)C=C1c1cccc(F)c1
[3]
  inhibition at 25 µg/mL: 70%
[4]; [11]
  AIC40: 1.3
[1]
  minimal effective concentration: 0.5 µg/mL

## C=C1NC(=O)C=C1c1ccc(OC)cc1 [Compound 294]
[4]; [10]
  AIC40: significantly better AIC40 values than compounds 198 and 205

## C=C1NC(=O)C=C1c1ccc(OC)cc1 [drawing 24]
[3]
  inhibition at 25 µg/mL: 36%
[6]; 25 ug/ml
  P. aeruginosa biofilm: 76% (25 ug/ml)
[4]
  ID40 at 3 nM OHHL: 61 nM
[4]; [10]
  AIC40: 5.4
[4]; [11]
  AIC40: 5.4

## COc1ccccc1C1=CC(=O)NC1(C)O (stereo not shown)
[3]
  inhibition at 100 µg/mL: 41%
[1]
  minimal effective concentration: > 50 µg/mL
